The numbers were not newly measured in patent US20070071706A1, “Lipodissolving dermatological topical preparation” (priority 2005, published 2007), which cites them from elsewhere.

For this data set the following is noted: used as transdermal permeability enhancer / carrier; delivered substance erythromycin; rats.

Molecules are shown by their SMILES.

Consider `CC(O)CO` (centres unmarked) [propylene glycol], for which the “local accumulation in the subcutaneous tissue of the substance being transdermally delivered” value is “very negligible and short living subcutaneous accumulation”; the “systemic absorption of the substance being transdermally delivered” value is “good systemic absorption”.
